# Assay results reported in patent EP0552612A2, “Methods for determining and isolating compounds which bind directly to nucleosolic proteins” (F. HOFFMANN-LA ROCHE AG, priority 1992, dated 1993).
# How the values were obtained:
# RARα [1] = target: T1, RARα (Homo sapiens, UniProt P10276); test: Displacement of radiolabel from nucleosol of COS-1 cells treated in culture with ³H-T-RA; conditions: excess unlabeled T-RA (10 µM), 4 hours at 4°C
# T1 sequence (P10276 1-462): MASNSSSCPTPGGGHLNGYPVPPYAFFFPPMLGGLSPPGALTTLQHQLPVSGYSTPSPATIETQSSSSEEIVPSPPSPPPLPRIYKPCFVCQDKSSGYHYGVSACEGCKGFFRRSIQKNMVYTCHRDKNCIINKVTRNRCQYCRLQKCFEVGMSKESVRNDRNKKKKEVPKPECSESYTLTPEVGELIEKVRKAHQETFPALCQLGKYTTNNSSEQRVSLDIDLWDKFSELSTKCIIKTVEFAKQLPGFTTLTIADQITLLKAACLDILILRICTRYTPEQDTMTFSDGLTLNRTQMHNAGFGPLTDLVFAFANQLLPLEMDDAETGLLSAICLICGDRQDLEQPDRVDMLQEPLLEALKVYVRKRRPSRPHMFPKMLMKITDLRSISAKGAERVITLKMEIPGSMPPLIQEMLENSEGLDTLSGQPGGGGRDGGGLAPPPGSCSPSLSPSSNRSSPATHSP
# [2] = tested on: retinoic acid receptors α, β or γ; test: Competitive binding with ³H-T-RA to nucleosol of RAR-transfected COS-1 cells; set-up: species or system human; conditions: concentrations as high as 1 µM; 5 nM ³H-T-RA, 4°C, 30 minutes
# Description: Competitive binding studies were performed as follows. COS-1 cells were transfected with the cDNAs encoding RARs α, β or γ in the expression vector pSG5 (described in Example 1). The cells were cultured for 72 hours and the nucleosol fraction isolated (14). Nucleosol fractions were incubated (14) at 4°C for 30 minutes with 5 nM ³H-T-RA with various concentrations of unlabeled 13-cis RA. Bound was separated from free radioactivity using PD10 columns as described in Example 1 above.
# RARα [3] = target: T1, RARα; test: In vitro binding of ³H-T-RA to nucleosol of transfected COS-1 cells; conditions: nucleosol from RARα-transfected COS-1 cells; 10 nM ³H-T-RA, 2 hours at 4°C
structure (smiles),measurement,setting,value
"CC1=C(/C=C/C(C)=C/C=C/C(C)=C/C(=O)O)C(C)(C)CCC1 [T-RA, all-trans retinoic acid]",displacement of bound radiolabel,RARα [1],displaces radioactivity bound in the RARα nucleosol
"CC1=C(/C=C/C(C)=C/C=C/C(C)=C\C(=O)O)C(C)(C)CCC1 [13-cis RA, 13-cis retinoic acid]",competition with ³H-T-RA for binding,[2],minimal competition for binding
[3H]C(/C=C(C)/C=C/C1=C(C)CCCC1(C)C)=C([3H])\C(C)=C\C(=O)O [³H-T-RA],binding of ³H-T-RA,RARα [3],considerable binding
